Patent publication US8258134B2, “Pyridazinone glucokinase activators” (Hoffmann-La Roche Inc., priority 2008, dated 2012)

Target: T1, Recombinant human liver GK1 (GST-GK) (Homo sapiens, UniProt P35557)
T1 construct: made in house; host or cells: E. coli
T1 sequence (P35557 1-466 isoform P35557-2): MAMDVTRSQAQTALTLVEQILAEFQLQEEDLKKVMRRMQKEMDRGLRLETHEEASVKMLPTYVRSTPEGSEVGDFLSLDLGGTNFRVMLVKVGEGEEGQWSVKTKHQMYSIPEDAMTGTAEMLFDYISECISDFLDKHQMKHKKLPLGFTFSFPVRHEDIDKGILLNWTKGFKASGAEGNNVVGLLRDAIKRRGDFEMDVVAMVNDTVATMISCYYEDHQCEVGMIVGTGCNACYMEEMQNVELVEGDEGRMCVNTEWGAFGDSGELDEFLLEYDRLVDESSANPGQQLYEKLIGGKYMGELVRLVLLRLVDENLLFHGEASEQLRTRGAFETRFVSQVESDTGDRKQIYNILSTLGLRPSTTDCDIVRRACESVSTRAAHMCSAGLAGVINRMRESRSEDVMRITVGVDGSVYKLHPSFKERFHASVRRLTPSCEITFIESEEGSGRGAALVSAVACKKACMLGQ
Test: Glucokinase in vitro assay (G6PDH-coupled NADH generation, OD340)
Format: biochemical
Conditions: 5 mM D-glucose, 30° C., pH 7.1, 10% DMSO
Procedure: Glucokinase In Vitro Assay Protocol: Glucokinase (GK) was assayed by coupling the production of glucose-6-phosphate to the generation of NADH with glucose-6-phosphate dehydrogenase (G6PDH, 0.75-1 k units/mg; Boehringer Mannheim, Indianapolis, Ind.) from Leuconostoc mesenteroides as the coupling enzyme (Scheme 2):
Recombinant human liver GK1 was expressed in E. coli as a glutathione S-transferase fusion protein (GST-GK) [Liang et al, 1995] and was purified by chromatography over a glutathione-Sepharose 4B affinity column using the procedure provided by the manufacturer (Amersham Pharmacia Biotech, Piscataway, N.J.).
The assay was conducted at 30° C. in a flat bottom 96-well tissue culture plate from Costar (Cambridge, Mass.) with a final incubation volume of 120 μL. The incubation reaction contained the following: 25 mM Hepes buffer (pH 7.1), 25 mM KCl, 5 mM D-glucose, 1 mM ATP, 1.8 mM NAD, 2 mM MgCl2, 1 μM sorbitol-6-phosphate, 1 mM dithiothreitol, test drug or 10% DMSO, ˜7 units/ml G6PDH, and GK (see below). All organic reagents were >98% pure and were from Boehringer Mannheim with the exceptions of D-glucose and Hepes which were from Sigma Chemical Co, St Louis, Mo. Test compounds were dissolved in DMSO and were added to the incubation reaction minus GST-GK in a volume of 12 μL to yield a final DMSO concentration of 10%. This mix was pre-incubated in the temperature controlled chamber of a SPECTRAmax 250 microplate spectrophotometer (Molecular Devices Corporation, Sunnyvale, Calif.) for 10 minutes to allow temperature equilibrium and then the reaction was started by the addition of 20 μL GST-GK.
After addition of enzyme, the increase in optical density (OD) at 340 nm was monitored spectrophotometrically to determine the rate of change (OD340 per min). The GK activity (OD340/min) in control wells (10% DMSO minus GK activators) was compared with the activity in wells containing test GK activators, and the concentration of activator that produced a 50% increase in the activity of GK, i.e., the SC1.5, was calculated. The table below provides the in vitro glucokinase activity for the compounds in the Examples: […]

In order of rising “SC1.5 average (concentration of activator that produced a 50% increase in the activity of GK)” value:
1. COC(=O)c1ccc(NC(=O)C(CC2CCCC2)n2ncc(Oc3ccccc3C)cc2=O)nc1 (centres unmarked) [Example 69, 6-[3-Cyclopentyl-2-(6-oxo-4-o-tolyloxy-6H-pyridazin-1-yl)-propionylamino]-nicotinic acid methyl ester]  0.033 µM
2. O=C(O)c1ccc(NC(=O)C(CC2CCCC2)n2ncc(Oc3cccc4c3CCCC4)cc2=O)nc1 (centres unmarked) [Example 72, 6-{3-Cyclopentyl-2-[6-oxo-4-(5,6,7,8-tetrahydro-naphthalen-1-yloxy)-6H-pyridazin-1-yl]-propionylamino}-nicotinic acid]  0.098 µM
3. CC(C)(O)Cn1ccc(NC(=O)C(CC2CCCC2)n2ncc(Oc3cccc(F)c3)cc2=O)n1 (centres unmarked) [Example 18, 3-Cyclopentyl-2-[4-(3-fluoro-phenoxy)-6-oxo-6H-pyridazin-1-yl]-N-[1-(2-hydroxy-2-methyl-propyl)-1H-pyrazol-3-yl]-propionamide]  0.634 µM
4. CC(C)CC(C(=O)Nc1ccn(C[C@@H](O)CO)n1)n1ncc(Oc2cccc(C(F)(F)F)c2Cl)cc1=O (stereo partly drawn) [Example 126, 2-[4-(2-Chloro-3-trifluoromethyl-phenoxy)-6-oxo-6H-pyridazin-1-yl]-4-methyl-pentanoic acid [1-((R)-2,3-dihydroxy-propyl)-1H-pyrazol-3-yl]-amide]  1.221 µM
5. CC(C)(O)Cn1ccc(NC(=O)C(CC2CCCC2)n2ncc(Oc3ccccc3N3CCOCC3)cc2=O)n1 (centres unmarked) [Example 34, 3-Cyclopentyl-N-[1-(2-hydroxy-2-methyl-propyl)-1H-pyrazol-3-yl]-2-[4-(2-morpholin-4-yl-phenoxy)-6-oxo-6H-pyridazin-1-yl]-propionamide]  1.72 µM
6. Cc1occc(=O)c1Oc1cnn(C(CC2CCCC2)C(=O)Nc2ccn(C[C@@H](O)CO)n2)c(=O)c1 (stereo partly drawn) [Example 97, 3-Cyclopentyl-N-[1-((R)-2,3-dihydroxy-propyl)-1H-pyrazol-3-yl]-2-[4-(2-methyl-4-oxo-4H-pyran-3-yloxy)-6-oxo-6H-pyridazin-1-yl]-propionamide]  1.895 µM
7. CC(C)(O)Cn1ccc(NC(=O)C(CC2CCCC2)n2ncc(Cc3ccccc3C(F)(F)F)cc2=O)n1 (centres unmarked) [Example 46, 3-Cyclopentyl-N-[1-(2-hydroxy-2-methyl-propyl)-1H-pyrazol-3-yl]-2-[6-oxo-4-(2-trifluoromethyl-benzyl)-6H-pyridazin-1-yl]-propionamide]  1.947 µM
8. CC(C)CC(C(=O)Nc1ccn(C[C@@H](O)CO)n1)n1ncc(-n2ccc3c(O)cccc32)cc1=O (stereo partly drawn) [Example 112, 2-[4-(4-Hydroxy-indol-1-yl)-6-oxo-6H-pyridazin-1-yl]-4-methyl-pentanoic acid [1-((R)-2,3-dihydroxy-propyl)-1H-pyrazol-3-yl]-amide]  2.606 µM
9. CC(C)(O)Cn1ccc(NC(=O)C(CC2CCCC2)n2ncc(S(=O)(=O)c3ccccc3)cc2=O)n1 (centres unmarked) [Example 125, 2-(4-Benzenesulfonyl-6-oxo-6H-pyridazin-1-yl)-3-cyclopentyl-N-[1-(2-hydroxy-2-methyl-propyl)-1H-pyrazol-3-yl]-propionamide]  2.611 µM
10. CC(C)(O)Cn1ccc(NC(=O)[C@@H](CC2CCCC2)n2ncc(Oc3ccccc3C(F)(F)F)cc2=O)n1 [Example 11B, (R)-3-Cyclopentyl-N-[1-(2-hydroxy-2-methyl-propyl)-1H-pyrazol-3-yl]-2-[6-oxo-4-(2-trifluoromethyl-phenoxy)-6H-pyridazin-1-yl]-propionamide]  6.893 µM
11. CC(C)(O)Cn1ccc(NC(=O)C(CC2CCCC2)n2ncc3ccccc3c2=O)n1 (centres unmarked) [Example 84, 3-Cyclopentyl-N-[1-(2-hydroxy-2-methyl-propyl)-1H-pyrazol-3-yl]-2-(1-oxo-1H-phthalazin-2-yl)-propionamide]  15.983 µM
